Series [1] relates to Primary human subcutaneous preadipocytes differentiated to adipocytes. The series is described as follows: lipolysis assay, free glycerol in supernatant. It is filed as cell-based. As to conditions: for Activity with regard to lipolysis (neither inhibited nor stimulated): max. use concentration 25 ppm, about 20 hours incubation; for IC50 inhibition of the lipolysis: mean values of at least 2 independent tests. The method, then: Primary human subcutaneous preadipocytes (Lonza) are seeded in a 96-well microtiter plate at a concentration of 1×10^4 cells/well. Until confluence is reached, cultivation takes place at 37° C. and 5% CO2 in DMEM, enriched with 10% foetal calf serum. To induce the differentiation of preadipocytes to adipocytes there follows the addition DMEM enriched with 10% foetal calf serum, with added 10 μg/ml insulin, 1 μM dexamethasone and 1 mM IBMX (3-isobutyl-1-methylxanthine). A cultivation for 14 to 20 days follows. During this time, the medium can optionally be replaced by DMEM, enriched with 10% foetal calf serum.
Various concentrations of the test substances are applied to the cells in DMEM, with bovine serum albumen added. After about 20 hours of incubation, the quantification takes place of free glycerol in the supernatant of the cells, which is discharged therefrom after hydrolysis of triglycerides in the cells and is a measure of the lipolysis of the cells. The quantification of the free glycerol is carried out based on an enzymatic method with a free glycerol reagent.
The stimulation of the lipolysis in the presence of test substances is calculated according to the following equation: […]
The […] is calculated from the lipolysis stimulation [%] in a series of dilutions of tested samples. This is the concentration at which the lipolysis is 50% stimulated.
The inhibition of the lipolysis in the presence of test substances is calculated according to the following equation: […]
The IC50 is calculated from the lipolysis inhibition [%] in a series of dilutions of tested samples. This is the concentration at which the lipolysis is 50% inhibited.

The target of a further series is T1, pancreatic lipase (PL) (Sus scrofa, UniProt P00591).
T1 construct: purchased Sigma-Aldrich
T1 sequence (P00591 1-450): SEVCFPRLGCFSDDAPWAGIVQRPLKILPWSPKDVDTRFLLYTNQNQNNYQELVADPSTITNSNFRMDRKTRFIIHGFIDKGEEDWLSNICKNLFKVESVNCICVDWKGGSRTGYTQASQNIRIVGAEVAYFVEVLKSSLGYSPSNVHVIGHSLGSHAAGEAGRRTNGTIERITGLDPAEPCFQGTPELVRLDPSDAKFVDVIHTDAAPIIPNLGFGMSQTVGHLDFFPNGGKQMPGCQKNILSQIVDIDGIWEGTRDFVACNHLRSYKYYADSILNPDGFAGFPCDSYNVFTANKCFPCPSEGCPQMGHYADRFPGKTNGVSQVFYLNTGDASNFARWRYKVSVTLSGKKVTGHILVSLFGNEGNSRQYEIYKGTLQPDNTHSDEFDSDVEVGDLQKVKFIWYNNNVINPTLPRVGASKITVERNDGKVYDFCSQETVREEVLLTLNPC
Briefly: inhibition of pancreatic lipase, MUF oleate hydrolysis. It is filed as biochemical. As to conditions: MUF oleate substrate; mean values of at least 2 independent tests. An excerpt:
Lipogenesis is taken to mean the storing of triglycerides in adipocytes. The inhibition of this storage can take place by means of the inhibition of the activity of extracellular lipoprotein lipase (LPL) in that the hydrolysis of extracellular triglycerides and therefore the absorption of free fatty acids by adipocytes is reduced. As a preliminary test, the inhibition of pancreatic lipase (PL) is investigated.
PL (Sigma-Aldrich), in the presence of test substances in different use concentrations has methylumbelliferyl oleate (MUF oleate) added as a substrate. Fluorescent methylumelliferon (MUF), is produced by hydrolysis of the MUF oleate by PL and is quantified. The inhibition of the hydrolysis of the MUF oleate is a measure of the inhibition of activity of the PL.
The IC50 is calculated from the inhibition of the PL [%] in a series of dilutions of tested samples. This is the concentration, at which the activity of the PL is 50% inhibited.

The target of a further series is T2, lipoprotein lipase (LPL) (Mus musculus, UniProt P11152).
T2 construct: endogenous in cells; host or cells: differentiated 3T3-L1 cells (mouse); heparin-released supernatant
T2 sequence (P11152 28-474): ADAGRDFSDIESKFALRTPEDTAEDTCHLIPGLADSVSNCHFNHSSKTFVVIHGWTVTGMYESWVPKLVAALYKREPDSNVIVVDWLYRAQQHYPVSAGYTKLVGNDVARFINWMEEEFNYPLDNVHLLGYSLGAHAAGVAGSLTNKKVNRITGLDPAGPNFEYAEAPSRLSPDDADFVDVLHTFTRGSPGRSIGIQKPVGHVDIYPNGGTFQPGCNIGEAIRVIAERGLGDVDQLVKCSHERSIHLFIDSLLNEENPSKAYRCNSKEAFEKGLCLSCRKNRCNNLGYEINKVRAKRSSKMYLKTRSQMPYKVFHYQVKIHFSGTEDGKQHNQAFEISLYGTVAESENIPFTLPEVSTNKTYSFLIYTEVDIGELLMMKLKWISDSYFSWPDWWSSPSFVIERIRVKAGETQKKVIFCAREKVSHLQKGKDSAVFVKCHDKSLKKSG
Briefly: inhibition of lipoprotein lipase from differentiated 3T3-L1 cells, MUF oleate hydrolysis. The format is biochemical. As to conditions: LPL from 3T3-L1 cells; MUF oleate substrate; mean values of at least 2 independent tests. The method, then:
The results of the inhibition of the PL are used as a preliminary test and are confirmed on LPL. To obtain LPL, 3T3-L1 cells (mouse embryonal fibroblast adipocyte cell line) are seeded in a 6-well plate with collagen I-coating in a concentration of 3×10^5 cells/well. The cultivation and differentiation of the cells takes place analogously to the details in Example 2 (adipogenesis assay). During the differentiation LPL, is increasingly expressed. The LPL is present in a membrane-bound state and is released by one hour incubation with heparin solution at 2-8° C. in the supernatant of the cells.
The LPL thus obtained, in the presence of test substances in different use concentrations, has methylumbelliferyl oleate (MUF oleate) added as the substrate. Fluorescent methylumbelliferyl (MUF) is produced by hydrolysis of the MUF oleate by LPL and is quantified. The inhibition of the hydrolysis of the MUF oleate is a measure of the inhibition of the activity of the LPL and therefore the lipogenesis.
The IC50 is calculated from the inhibition of the LPL [%] in a series of dilutions of tested samples. This is the concentration at which the activity of the LPL and therefore the lipogenesis is 50% inhibited.

The subject of a further series is 3T3-L1-cells. The series is described as follows: adipogenesis inhibition assay (Nile Red lipid staining). It is filed as cell-based, mouse. As to conditions: mean values of at least 2 independent tests. The method, then:
3T3-L1-cells (mouse embryonal fibroblast-like adipocyte cell line) are seeded in a 48-well plate with collagen I-coating in a concentration of 3×10^4 cells/well. After 72 h cultivation at 37° C. and 5% CO2 in DMEM (Dulbecco's Modified Eagle Medium), enriched with 10% calf serum, various concentrations of the test substances in DMEM, enriched with 10% foetal calf serum and to which are added 1 μg/ml insulin, 0.25 μM dexamethasone and 0.5 mM IBMX (3-isobutyl-1-methylxanthine), are added and incubated for a further 48 h. A media change takes place, in that DMEM, enriched with 10% foetal calf serum and with 1 μg/ml insulin added, are applied. After renewed cultivation for 48 h, a further media change takes place, in which DMEM, enriched with 10% foetal calf serum, is applied.
After a further incubation for 72 h, the intracellularly stored lipids are quantified as a measure for the differentiation of the cells by measuring the fluorescence after dyeing of the lipids with the fluorescent dye Nile Red.
The inhibition of the adipogenesis in the presence of the test substances is calculated according to the following equation: […]
The IC50 is calculated from the adipogenesis inhibition (%) in a series of dilutions of tested samples. This is the concentration at which the adipogenesis is 50% inhibited.

A further series has as its system fat cells. The series is described as follows: own investigations on differentiation of fat cells. The format is cell-based. Particulars: depending on the use concentration.
The nature of series [2]: phototoxic potential, photo-irritation factor according to OECD guideline 432. Particulars: own investigations.
Text: The phototoxic potential is expressed as a photo-irritation factor (PIF). […] It applies here that with a PIF of less than 2, no phototoxic potential exists while a phototoxic potential exists at a PIF of more than 5. With a PIF of between 2 and 5, there is possibly a phototoxic potential.

In the case of `COc1ccc2c(c1)OC[C@H]1c3ccccc3O[C@@H]21` [3-methoxypterocarpan], the “Activity with regard to lipolysis (neither inhibited nor stimulated)” value in series [1] is “No activity (25 ppm)”. Moreover, on pancreatic lipase (PL), the “IC50 inhibition of the PL” value is listed as 350 ppm. Moreover, the “IC50 inhibition of the LPL” value against lipoprotein lipase (LPL) turned out to be 67.0 ppm. Moreover, the IC50 adipogenesis inhibition in the series with 3T3-L1-cells was determined as 50.9 ppm.
In the case of `COc1ccc(-c2coc3cc(O)ccc3c2=O)cc1` [Formononetin, reference compound], the “IC50 inhibition of the lipolysis” value in series [1] amounted to 53.7 ppm.
Take `Oc1ccc2c(c1)OC[C@H]1c3cc4c(cc3O[C@@H]21)OCO4` [Maackiain]: the “Activity with regard to lipolysis (neither inhibited nor stimulated)” value in series [1] is recorded as “No activity (25 ppm)”. The “IC50 inhibition of the PL” value against pancreatic lipase (PL) stood at 147 ppm. Further, the “IC50 inhibition of the LPL” value at lipoprotein lipase (LPL) was 104.2 ppm. In addition, in the series with 3T3-L1-cells, the IC50 adipogenesis inhibition is reported as 25.5 ppm.
Taken in the same sequence, the figures for `COc1ccc2c(c1)OC1c3ccc(O)cc3OCC21` (stereo not drawn) [Medicarpin] were “No activity (25 ppm)”, 425 ppm, 788 ppm and 54.0 ppm.
Take `COc1cc(O)c2c(=O)c(-c3ccc(O)c(O)c3)coc2c1` [Santal, reference compound]: in series [1], the “IC50 inhibition of the lipolysis” value is recorded as 1.92 ppm. Besides, the “effect on lipolysis (route iii), in words” value in series [1] (own investigations) is recorded as “inhibition of lipolysis”.
Take `O=c1c(-c2ccc(O)cc2)coc2cc(O)cc(O)c12` [genistein]: in the series with fat cells, the “effect on differentiation of fat cells, in words” value is “inhibited or stimulated”.
On to `COc1ccc(-c2coc3cc(O)c(OC)cc3c2=O)cc1O` [odoratin], for which, in series [2], the “phototoxic potential, in words” value is “notable phototoxic potential”.
The same measure, in the same setting: as for cladastrin, the entry is “notable phototoxic potential”.

The values are drawn from patent US8633203B2, “Use of pterocarpans as active anti-cellulite ingredients” (Symrise AG, priority 2009, dated 2014).
